Measurements: PMC9328939, “A Randomized Double‐Blind Placebo‐Controlled First‐In‐Human Phase 1 Trial of TransCon PTH in Healthy Adults” (Journal of Bone and Mineral Research, 2020)

How the values were obtained:
[1] = system: healthy adults; assay: Pharmacodynamics: fractional excretion of calcium (FECa); format: in vivo, human; settings: despite mild hypercalcemia, normal limits approximately 0.4% to 2%
Method: (§1) Twice‐daily 12‐hour urine samples (including calcium, phosphorus, magnesium, and creatinine) were also collected. In MAD cohorts, serum samples collected from TransCon PTH‐treated and placebo‐treated subjects predose and postdose on day 14 were analyzed for anti‐PTH binding antibodies by BioAgilytix (Durham, NC, USA) using an electrochemiluminescence bridging assay. Samples were analyzed using a multitiered approach consisting of a screening assay and a confirmatory assay.

[2] = system: healthy adults; assay: Pharmacodynamics: serum phosphate (sP); format: in vivo, human; settings: MAD cohorts, near steady-state (days 8 to 10); linear regression on dose, p = .0430
Method: All statistical analyses were performed using SAS 9.3 or higher (SAS Institute, Inc., Cary, NC, USA). Summary statistics were reported for continuous data, including mean, standard deviation, standard error, median, minimum, and maximum, whereas number and percentage of subjects within treatment groups were reported for categorical data. For sP and TMP/GFR, a linear regression model was performed for the change from baseline, with dose and baseline as independent variables at near steady‐state. Near steady‐state was defined as the average of predose values on day 8, 9, and 10. Dose was defined as a continuous variable where placebo was considered zero.

[3] = system: healthy adults; assay: Pharmacodynamics: serum magnesium (sMg); format: in vivo, human; settings: MAD cohorts; data not shown
[4] = system: healthy adults; assay: Pharmacodynamics: 1,25-dihydroxyvitamin D; format: in vivo, human; settings: healthy subjects; data not shown
[5] = system: healthy adults; assay: Pharmacodynamics: suppression of intact endogenous PTH(1-84); format: in vivo, human
Method: (§2) The PD endpoints included albumin‐adjusted sCa, fractional excretion of calcium, sP, renal tubular maximum reabsorption of phosphate/glomerular filtration rate (TMP/GFR), intact endogenous PTH(1‐84), osteoblastic bone formation markers (serum bone‐specific alkaline phosphatase [BSAP] and P1NP), osteoclastic bone resorption markers (urine NTx and serum CTx), sMg, and 1,25‐dihydroxyvitamin D. PK samples were collected predose and at regular intervals postdose through 96 hours for the SAD cohorts and through day14 for the MAD cohorts.

[6] = system: healthy adults; assay: Pharmacodynamics: bone turnover markers (serum BSAP, P1NP, CTx; urine NTx); format: in vivo, human; settings: MAD
Method: as §2

[7] = system: anti-PTH binding antibodies; assay: Anti-PTH binding antibodies, electrochemiluminescence bridging assay; format: in vivo, human; settings: MAD cohorts, serum predose and day 14; screening and confirmatory assay
Method: as §1

[8] = system: healthy adults; settings: in vivo
Method: Subjects attended a screening visit; those who met eligibility criteria were randomly assigned to a SAD or MAD cohort (n = 10/cohort; eight active and two placebo) and received a single or multiple dose(s) of TransCon PTH, respectively, via a syringe and 31G 8‐mm needle s.c. to the abdomen. […] Multiple TransCon PTH doses administered daily for 10 days ranged from 3.5 to 24 μg PTH(1‐34)/day. Throughout drug administration and for 4 days following the final dose, subjects remained housed for laboratory tests and safety monitoring.
At screening, demographic information, medical history, and concomitant medications, vital signs with height and weight, hematology, blood chemistry (including sCa, sP, and sMg), intact endogenous PTH(1‐84), 1,25‐dihydroxyvitamin D, and urine samples were collected. In addition, a limited physical examination and electrocardiogram (ECG) were performed.
Via regular vital sign checks, physical examinations, and safety laboratory tests, subjects were also monitored for adverse events (AEs) throughout the trial, including injection site reactions (erythema, ecchymosis, edema, pruritus, and pain).

[9] = MAD cohorts, daily doses x 10 days

TransCon PTH: long-acting, essentially inactive prodrug: PTH(1-34) transiently bound to an inert 40 kDa mPEG carrier via a proprietary autocleaving linker
FECa (spot) [1, 9]: remained essentially within normal limits | FECa ([1]; SAD cohorts, data not shown): remained essentially within normal limits | change in serum phosphate (sP) from baseline [2]: significant dose‐dependent decrease | change in serum magnesium (sMg) [3]: nonsignificant increase | 1,25-dihydroxyvitamin D levels [4]: did not change significantly | intact endogenous PTH(1-84) [5, 9]: dose‐dependent suppression | intact endogenous PTH(1-84) ([5]; SAD cohorts, data not shown): dose‐dependent suppression | serum BSAP (osteoblastic bone formation marker) ([6]; 10 days of administration, compared to placebo): neither the osteoblastic bone formation marker, BSAP (Fig. 8) or P1NP (data not shown), increased | P1NP (osteoblastic bone formation marker) ([6]; 10 days of administration, compared to placebo, data not shown): neither the osteoblastic bone formation marker, BSAP (Fig. 8) or P1NP (data not shown), increased | time course of serum CTx levels ([6]; Free PTH at steady-state until at least day 11): declined from day 8 to baseline by day 13 | serum CTx (osteoclastic bone resorption marker) ([6]; over 10 days of administration, compared to placebo): increased modestly | urine NTx (osteoclastic bone resorption marker) ([6]; over 10 days, data not shown): no consistent increase | anti-PTH antibodies [7]: No anti‐PTH antibodies were detected | treatment-emergent AE: upper respiratory tract infections [8]: 6%
